Patent US20200157135A1, “SIDE-CHAIN MODIFIED ERGOSTEROL AND STIGMASTEROL DERIVATIVES AS LIVER X RECEPTOR MODULATORS” (Ospedale San Raffaele srl, priority 2017, published 2020)
Read-outs that look alike come from different tables or passages of the source.

Legend:
hLXRα = molecular target: T1, hLXRα (Homo sapiens, UniProt Q13133); experiment: luciferase assay with GAL-4 chimeric hLXRα receptor in human embryonic kidney 293 cells; format: cell-based; conditions: for Emax: HEK293, 24 h, read-out: LXRα Efficacy (%) ± SD; for EC50: GAL4-hLXRα luciferase, HEK293, dose-response 32-1 μM, mean of three-five independent experiments, read-out: LXRα EC50 (μM) ± SD
T1 sequence (Q13133 209-447 limits assumed): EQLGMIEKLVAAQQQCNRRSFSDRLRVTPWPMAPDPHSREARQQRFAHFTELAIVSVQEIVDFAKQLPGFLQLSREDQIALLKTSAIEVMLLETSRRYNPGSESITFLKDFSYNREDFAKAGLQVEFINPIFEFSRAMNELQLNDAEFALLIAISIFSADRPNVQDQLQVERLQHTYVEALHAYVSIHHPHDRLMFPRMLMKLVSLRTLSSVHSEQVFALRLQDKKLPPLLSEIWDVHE
Procedure: (§1) All the synthesized compounds were first tested for their ability to activate LXRs by using luciferase assays with GAL-4 chimeric receptors. These were performed by co-transfecting plasmids encoding hLXRα- and β-binding domains fused to GAL-4, with the respective responsive element conjugated with the luciferase reporter gene into the human embryonic kidney 293 cells.
(§2) Cell Culture and Co-transfection Assays. Human embryonic Kidney 293 cells (American Type Culture Collection) were cultured in Dulbecco's Modified Eagle's medium containing 10% of fetal bovine serum at 37° C. in humidified atmosphere of 5% CO2. HEK293 cells (4×10^4 cells per well) were transiently transfected in 48 well plate with the reporter plasmids pMH100X4-TK-luc (100 ng/well), Renilla (22 ng/well) together with 100 ng/well of pCMX-Gal4-RXR, pCMX-Gal4-PPAR-γ, pCMX-Gal4-PXR, pFA-CMV-FXR pCMX-Gal4-LXR-α or pCMX-Gal4-LXR-β plasmids using X-tremeGENE 9 DNA Transfection Reagent (Roche). Six hours after transfection, the cells were treated with the appropriate compound for 24 hours. Luciferase activities were analyzed by luciferase Dual Reporter Assay Systems (Promega) according to the manufacturer's protocol. GAL4-LXRs, GAL4-PPAR-γ, GAL4-RXR and TK-MHC100-luc plasmids were described in Villablanca et al.49 GAL4-PXR was a kind gift of Dr. Enrique Sainz (The Scripps Research Institute, La Jolla, USA). GAL4-FXR was a kind gift of Dr. Daniel Merk (Goethe-University Frankfurt am Main). The results obtained by luciferase assays and reported in Table 1 are from three to five independent experiments.
(§3) Statistical analysis. Data are expressed as mean±SEM and were analyzed for significance by ANOVA with Dunnet's multiple comparison tests. The analysis was performed with Prism software. Data in Table 1 are expressed as EC50±SD. In particular, the standard deviations were obtained by calculating the mean of the EC50 of each experiment (three to five independent experiments). The efficacy (%) of the compounds was calculated as the percentage of the compound effect, in terms of LXRα or β activation, versus 8 μM of 22R—HC±SD. The analyses were performed with Prism software.

hLXRβ = molecular target: T2, hLXRβ (Homo sapiens, UniProt P55055); experiment: luciferase assay with GAL-4 chimeric hLXRβ receptor in human embryonic kidney 293 cells; format: cell-based; conditions: for Emax: HEK293, 24 h; for EC50: GAL4-hLXRβ luciferase, HEK293, dose-response 32-1 μM, mean of three-five independent experiments, read-out: LXRβ EC50 (μM) ± SD
T2 sequence (P55055 222-460 limits assumed): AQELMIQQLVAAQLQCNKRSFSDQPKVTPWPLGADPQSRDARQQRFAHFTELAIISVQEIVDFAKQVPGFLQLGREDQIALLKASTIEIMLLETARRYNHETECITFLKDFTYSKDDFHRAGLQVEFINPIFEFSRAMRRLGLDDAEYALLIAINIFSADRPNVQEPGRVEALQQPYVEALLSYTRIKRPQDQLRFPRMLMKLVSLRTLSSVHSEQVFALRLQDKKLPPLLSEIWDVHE
Procedure: as §1, §2, §3

hPXR = experiment: luciferase assay GAL4-hPXR in human embryonic kidney 293 cells; format: cell-based; conditions: compounds at 10 μM
Procedure: Human embryonic kidney 293 cells were co-transfected with GAL4-hRXR (A), GAL4-hPPARγ (B), GAL4-hPXR (C) and GAL4-hFXR (D) expression plasmids together with GAL4 responsive element pMHC100X4-TK-luc and Renilla plasmids. Cells were incubated with vehicle (DMSO), PFMs at the concentration of 10 μM, and the nuclear receptor specific ligands 9cis retinoic acid (100 nM) (A), Rosiglitazone (RSG 100 nM) (B), T0901317 (100 nM) (C) and GW4064 (100 nM) (D) for six hours. The values represent mean±S.D. RLA, relative luciferase activity.
The selectivity of our compounds within the nuclear receptor superfamily was also evaluated by luciferase assays using GAL4-RXR, -PPARγ, -PXR and -FXR plasmids.
as §2

SREBP1c [1] = experiment: qPCR of SREBP1c expression in HepG2 cells; format: cell-based, human; conditions: 10 μM
Procedure: HepG2 cells were treated with T0901317 (10 μM), 22R—HC (3) (10 μM) or with the tested compound (10 μM). […] (n=3/group). *p<0.05, **p<0.01, ***p<0.001.
LXR agonists induce the expression of target genes, which are involved in cholesterol homeostasis, particularly in the reverse cholesterol transport pathway.43 Indeed, LXR agonists induce the expression of ABCA1 both in macrophages and in many tissues of the periphery such as the intestine.44 Moreover, ABCA1 regulates cholesterol efflux to APOAI acceptors.45 In the liver, LXR activation promotes the biosynthesis of fatty acids, a process also termed as de novo lipogenesis by inducing the expression of the master regulator of hepatic lipogenesis sterol-regulatory element-binding protein 1C (SREBP-1c), as well as several downstream genes in the SREBP-1c pathway, including steroyl CoA desaturase 1 (SCD1) and fatty acid synthase (FASN).43 Therefore, it was investigated, by quantitative PCR (qPCR), the expression of ABCA1, SREBP1c, FASN, and SCD1, by using RNA from monocytic U937 cells (FIG. 3) and from hepatic HepG2 cells (FIG. 4) stimulated with our compounds, the non-steroidal agonist T0901317 or the endogenous ligand 22R—HC (3) as positive controls. […] 43,22 was evaluated. […]
Quantitative Real-Time-PCR. […] The comparative Ct method was used to quantify transcripts that were normalized for human GAPDH. the following primer pairs were used: […]

MCP-1/CCL2 = experiment: qPCR of CCL2 expression in differentiated U937 cells treated with LPS; format: cell-based, human; conditions: differentiated U937, 6 hours, 10 μM in combination with LPS (100 ng/ml)
Procedure: (§4) U937 cells differentiated with PMA for 72 hours were treated with LPS (100 ng/ml) in combination with T0901317 (10 μM) or with the title compounds (10 μM). […] (n=3/group). *p<0.05, **p<0.01, ***p<0.001.
(§5) Quantitative Real-Time-PCR. U937 cell line was differentiated in foam macrophages with phorbol 12-myristate 13-acetate (PMA) 10 ng/ml (Sigma) for 72 hours at 37° C. in […] at the concentration of 3×10^6 cells in 10 ml RPMI 10% FBS. At day 3 nuclear receptor ligands were added for 6 hours. HepG2 cells were treated with the ligands as described by Quinet et al.22 Total RNA was purified by TRIZOL (Invitrogen, Carlsbad, Calif., USA). Reverse transcription was performed incubating 2 μg of total RNA 1 hour at 42° C. with MLV-reverse transcriptase (Promega). Quantitative PCR was performed using Sybr Green Master Mix (Applied Biosystems) and real-time PCR (Viia 7 Real Time PCR System, Applied Biosystems). All PCR reactions were done in triplicate. The comparative Ct method was used to quantify transcripts that were normalized for human GAPDH. the following primer pairs were used: […]

SREBP1c [2] = experiment: qPCR of SREBP1c expression in PMA-differentiated U937 cells; format: cell-based, human; conditions: U937 differentiated with PMA 72 h; 10 μM, 6 hours
Procedure: (§6) U937 cells differentiated with PMA for 72 hours were treated with T0901317 (10 μM), 22R—HC (3) or with the tested compound (10 μM). […] (n=3/group). *p<0.05, **p<0.01, ***p<0.001.
(§7) LXR agonists induce the expression of target genes, which are involved in cholesterol homeostasis, particularly in the reverse cholesterol transport pathway.43 Indeed, LXR agonists induce the expression of ABCA1 both in macrophages and in many tissues of the periphery such as the intestine.44 Moreover, ABCA1 regulates cholesterol efflux to APOAI acceptors.45 In the liver, LXR activation promotes the biosynthesis of fatty acids, a process also termed as de novo lipogenesis by inducing the expression of the master regulator of hepatic lipogenesis sterol-regulatory element-binding protein 1C (SREBP-1c), as well as several downstream genes in the SREBP-1c pathway, including steroyl CoA desaturase 1 (SCD1) and fatty acid synthase (FASN).43 Therefore, it was investigated, by quantitative PCR (qPCR), the expression of ABCA1, SREBP1c, FASN, and SCD1, by using RNA from monocytic U937 cells (FIG. 3) and from hepatic HepG2 cells (FIG. 4) stimulated with our compounds, the non-steroidal agonist T0901317 or the endogenous ligand 22R—HC (3) as positive controls. […] Then, the induction of genes involved in the lipogenesis using the hepatic cell line HepG2. 43,22 was evaluated. […] Over the time, indeed, substantial efforts have been dedicated to the identification of LXR ligands able to turning on ABC transporter genes, without affecting lipogenic genes levels. This task is still one of the major challenge to the discovery of a clinically useful LXR modulator for atherosclerosis.
as §5

SCD1 = experiment: qPCR of SCD1 expression in PMA-differentiated U937 cells; format: cell-based, human; conditions: U937 differentiated with PMA 72 h; 10 μM, 6 hours
Procedure: as §6, §7, §5

ABCA1 = experiment: qPCR of ABCA1 expression in PMA-differentiated U937 cells; format: cell-based, human; conditions: U937 differentiated with PMA 72 h; 10 μM, 6 hours
Procedure: as §6, §7, §5

TNFα = experiment: qPCR of TNFα expression in differentiated U937 cells treated with LPS; format: cell-based, human; conditions: differentiated U937, 6 hours, 10 μM in combination with LPS (100 ng/ml)
Procedure: as §4, §5

[3] = read-out: LXRβ Efficacy (%) ± SD, % of compound effect versus 8 μM of 22R-HC
[4] = % of compound effect versus 8 μM of 22R-HC
[5] = % of compound effect versus 8 μM of 22R-HC, read-out: LXRβ Efficacy (%) ± SD

SMILES | Emax (hLXRα) [%] | Emax (hLXRβ; [3]) [%] | EC50 (hLXRα) [µM] | EC50 (hLXRβ) [µM] | Emax (hLXRα; [4]) [%] | Emax (hLXRβ; [5]) [%] | inhibition of CCL2 expression (MCP-1/CCL2) | other results
C=C[C@@](O)(CC[C@@H](C)C1CCC2C3CC=C4C[C@@H](O)CC[C@]4(C)C3CC[C@@]21C)C(C)C (stereo partly drawn) [Compound 12, 24(S)-saringosterol, reference compound] | 43.4 ± 17.6 | 61 ± 17.4 |  |  |  |  |  | beta/alfa efficacy ratio (hLXRβ; LXRβ efficacy over LXRα efficacy): 1.4
CC[C@@H](C(C)C)[C@@H]1O[C@H]1[C@@H](C)[C@H]1CC[C@H]2[C@@H]3CC=C4C[C@@H](O)CC[C@]4(C)[C@H]3CC[C@]12C [Compound 14, (22S,23S)-22,23-Epoxystigmast-5-ene-3β-ol] | 56.8 ± 4.6 | 36.3 ± 3 | 16.4 ± 0.62 | 12.7 ± 2.7 |  |  |  | 
CC(C)[C@@H](C)[C@H]1O[C@@H]1[C@@H](C)[C@H]1CC[C@H]2C3=CC=C4C[C@@H](O)CC[C@]4(C)[C@H]3CC[C@]12C [Compound 15, (22R,23R)-22,23-Epoxyergosta-5,7-diene-3β-ol] |  |  | 4.11 ± 0.31 | 7.2 ± 0.94 | 93.2 ± 5.8 | 30.4 ± 10.6 |  | PXR activation (hPXR): slight activation of PXR
CC(C)[C@@H](C)[C@@H]1O[C@H]1[C@@H](C)[C@H]1CC[C@H]2C3=CC=C4C[C@@H](O)CC[C@]4(C)[C@H]3CC[C@]12C [Compound 16, (22S,23S)-22,23-Epoxyergosta-5,7-diene-3β-ol] |  |  | 1.5 ± 0.12 | 1.96 ± 0.05 | 51.7 ± 3.8 | 48.5 ± 13 | same grade of potency of the positive control T0901317 | LXR isoform selectivity profile (hLXRα; LXRα versus LXRβ, GAL4 luciferase assays): non-selective and poorly preferential LXRα agonists; SREBP-1c up-regulation (SREBP1c [1]): significant up-regulation of SREBP-1c
CC[C@@H](C(C)C)[C@H](O)C[C@@H](C)[C@H]1CC[C@H]2[C@@H]3CC=C4C[C@@H](O)CC[C@]4(C)[C@H]3CC[C@]12C [Compound 19, (23R)-3β-Stigmast-5-ene-3,23-diol] |  |  | 3.2 ± 0.54 | 2.7 ± 1.16 |  |  | same grade of potency of the positive control T0901317 | SREBP-1c up-regulation (SREBP1c [2]): poor activators of SREBP1c and SCD1; SCD1 expression (SCD1): poor activators of SREBP1c and SCD1; ABCA1 expression (ABCA1): strong induction of ABCA1 expression; inhibition of TNFα expression (TNFα): the most active
